We go through four molecules from USRE44543E1, “Naphthalenic compounds as termite bait toxicants” (priority 2002, dated 2013).

Assay [1] deals with C. formosanus. The conditions noted are these: low toxicity baits; cited from earlier work.
The next assay relates to Reticulitermes spp. The conditions noted are these: low toxicity baits; cited from earlier work.
In assay [2] the test system is termites. Nature of the assay: Copper naphthenate laboratory study, ARS bait matrix in foraging boxes. The assay is classed as in vivo, Coptotermes formosanus. The protocol: (§1) For bait matrices with a final concentrations of NHA sodium salt of either 250 ppm or 500 ppm, the following procedure was used. A total of 25 mg or 50 mg, respectively of the NHA sodium salt was weighed using a Mettler balance. The NHA sodium salt complex was placed into a 50 ml sterile screw cap conical tube (#62.547.004; Sarstedt, Newton, N.C.) and dissolved with 40 ml nutritive solution described in Example 2 of U.S. patent application Ser. No. 09/294,499 filed Apr. 20, 1999, hereby incorporated by reference. Under a laminar flow hood, this product was mixed with 27 ml more of sterile nutritional supplement in a 250 ml sterile glass bottle (prepared as reported by M. G. Rojas and J. A. Morales-Ramos, April 2001, “Bait matrix for delivery of chitin synthesis inhibitors to the Formosan subterranean termite [Isoptera: Rhinotermitidae],” J. Econ. Entomol. 94(2) :506-510) hereby incorporated by reference. The bottle was tightly closed with a screw cap and manually shaken for 2 minutes. The mixture was added to 33 g of sterile cellulose as reported by Rojas and Morales-Ramos (2001) supra. The mixture was manually homogenized using a stainless steel spatula. To encase the bait matrix, tubes made of fibrous casing material (#124B; L.E.M. Products, Inc., Miamitown, Ohio) were cut into 150 mm long portions as reported by Rojas and Morales-Ramos (2001) supra. Fifty grams of bait matrix containing NHA sodium salt was compacted into one end of the inlet tube, and the open end and of the inlet tube was closed with a rubber band. The bait casing was placed inside of the foraging box adjacent to a 10 g piece of pine wood, taking care that it was partially covered with sand. Control bait matrix was prepared minus NHA, and presented in the same way as the treatment matrix to Formosan termites taken from three different colonies, with two boxes per locality totaling six boxes of 2500 termites per treatment. (Rojas and Morales-Ramos [2001] supra). All the experimental boxes were maintained under dark conditions at 27±1° C., and 90±2% relative humidity. Observations were done every 72 hours until all the termites died. The time to reach 100% mortality was measured and recorded. Mean comparisons among treatments and control were conducted.
Copper naphthenate (Product No. PS-2028, Chem Service, West Chester, Pa.) was dissolved in 90% warm ethanol at 3 different concentrations of 50, 100 and 200 ppm. The ethanol solution was mixed with the liquid part of the ARS bait matrix (see Example 2) and bait was prepared and presented to the termites as above in Example 1 having 4 repetitions per dose and a control. It was observed that at 50 ppm of chemical, all termites in 50% of the boxes died at about 8 weeks; and termites in 75% of the boxes died at about 10 weeks; at 100 ppm all termites died in the boxes at 8 weeks, and at 200 ppm all termites died in all tested boxes at 8 weeks. All termites in the treatments were dead by week 12.

Assay [3] has as its system termites. The conditions noted are these: Grace et al. 1993; cited from earlier work.
For a further assay, the system named is Formosan termites. Nature of the assay: Foraging box bait matrix bioassay, NHA sodium salt (Example 1). The assay is classed as in vivo, Coptotermes formosanus. The conditions noted are these: 6 boxes of 2500 termite workers. On the procedure:
as §1

For assay [4], the system named is C. formosanus. Nature of the assay: ARS bait matrix bioassay with NHA sodium salt, protocol of Example 1 (Example 2). The assay is classed as in vivo, Coptotermes formosanus. The protocol:
as §1
N-hydroxynaphthyalimide (NHA) which is commercially available as pure chemical, is dissolved in distilled water using a sterile container; At concentrations of 500 ppm, NHA is effective as bait active ingredient taking a mean time to kill C. formosanus in 2½ months in lab conditions. […]

In the case of `O=C(NC(=O)c1c(F)cccc1F)Nc1cc(Cl)c(OC(F)(F)C(F)F)c(Cl)c1` [hexaflumuron], the suppressing colonies entry with C. formosanus [1] and with Reticulitermes spp. was “particularly effective” throughout.

Regarding `O=C(NC(=O)c1c(F)cccc1F)Nc1ccc(Cl)cc1` [diflubenzuron], the suppressing colonies result in the assay on C. formosanus [1] and with Reticulitermes spp. was “particularly effective” each time.

As to Copper naphthenate, the “week by which all termites in the treatments were dead” value in the assay with termites [2] (50, 100 and 200 ppm) is given as no more than 12 week. For the same molecule, the “Percent colonies of 2500 termite workers alive” value in the assay with termites [2] (50 ppm, 8 wks after treatment) was determined as 50%; in the assay on termites [2] (50 ppm, 10 wks after treatment) it was 25%; with termites [2] (50 ppm, 12 wks after treatment), 0%; in the assay on termites [2] (100 ppm, 8 wks after treatment), 0%; in the assay with termites [2] (100 ppm, 10 wks after treatment), 0%; with termites [2] (100 ppm, 12 wks after treatment), 0%. The “Percent colonies of 2500 termite workers alive” value amounted to 0% with termites [2] (200 ppm, 8 wks after treatment); 0% in the assay with termites [2] (200 ppm, 10 wks after treatment); 0% in the assay on termites [2] (200 ppm, 12 wks after treatment). In addition, the “boxes in which all termites died” value worked out at 50% in the assay on termites [2] (50 ppm, at about 8 weeks) and 75% in the assay on termites [2] (50 ppm, at about 10 weeks). For the same molecule, the “time at which all termites died in the boxes” value with termites [2] (100 ppm) came to 8 weeks. In addition, the “time at which all termites died in all tested boxes” value with termites [2] (200 ppm) is listed as 8 weeks. Further, in the assay on termites [2] (200 ppm dose), the “acceptance of the bait and time to kill” value is given as “great variability”. Further, the repellence to termites entry with termites [3] is recorded as “highly repellent”. For the same molecule, the toxicity to termites entry in the assay on termites [3] was “toxic”.

As for `O=C1c2cccc3cccc(c23)C(=O)N1[O-].[Na+]` [NHA-sodium salt, N-hydroxynaphthyalimide Sodium Salt], the “Colonies Alive” value is on record as 4 in the assay on Formosan termites (250 ppm in bait matrix, 1 Month of feeding); 3 in the assay on Formosan termites (250 ppm in bait matrix, 2 Months of feeding); 0 in the assay with Formosan termites (250 ppm in bait matrix, 2½ Months of feeding); 3 with Formosan termites (500 ppm in bait matrix, 1 Month of feeding); 1 with Formosan termites (500 ppm in bait matrix, 2 Months of feeding); 0 with Formosan termites (500 ppm in bait matrix, 2½ Months of feeding). Besides, in the assay with C. formosanus [4] (500 ppm), the “repellence to the termites” value is “without any signs of repellence”. For the same molecule, the “time to formosan termite mortality” value in the assay with C. formosanus [4] (500 ppm, preliminary results, dose range 50, 250, 500 ppm) is “within about two months”. Moreover, in the assay with C. formosanus [4] (in vivo), the “dose at which repellence was observed” value is listed as “higher than 1500 ppm”.
